Measured values reported in patent publication US20260232767A1, “INTERLEUKIN-23 RECEPTOR ANTAGONIST PEPTIDES FOR USE IN THE TREATMENT OF PSORIASIS” (Janssen Pharmaceutica NV, priority 2023, published 2026).

How the values were obtained:
[1] = system: subjects with moderate-to-severe plaque psoriasis; experiment: BSA, Example 1; type: in vivo, human; conditions: each dose group vs placebo; Week 16
Text: Subjects suitable for the method of the present invention satisfy one or more criteria for inclusion, as described below. In some embodiments, the present invention relates to the method and/or use, where the subject has a psoriasis effected Body Surface Area (BSA) of at least 10% before the start of treatment. Herein the term BSA will mean the measure of the percentage of total area of your body affected by psoriasis.
(§1) Clinician-reported outcomes including Psoriasis Area and Severity Index (PASI), Body Surface Area (BSA), Investigator's Global Assessment (IGA), Nail Psoriasis Area and Severity Index (NAPSI), Fingernail Physician's Global Assessment (f-PGA), Static Physician's Global Assessment of Genitalia (s-PGA-G), Physician's Global Assessment of Hands and/or Feet (hf-PGA), and Scalp Specific Investigator Global Assessment (ss-IGA) were obtained at Week 0, 8, and 16. PASI and IGA were also obtained at Weeks 1, 2, 4, and 12, and at Week 20, four weeks after the administration of the tablets has stopped.

scalp psoriasis = experiment: Scalp Specific IGA (ss-IGA), Example 1; type: in vivo, human; conditions: Week 16
Method: The Scalp Specific Investigator Global Assessment (ss-IGA) instrument is used to evaluate the disease severity of scalp psoriasis. The lesions are assessed in terms of the clinical signs of redness, thickness, and scaliness which are scored as: absence of disease (0), very mild disease (1), mild disease (2), moderate disease (3), and severe disease (4).
as §1
Proportion of Patients Achieving scalp-specific (ss)-IGA score 0/1 and ss-IGA score 0 and With at Least a 2-Grade Improvement from baseline at Week 16.

CC(=O)NCCCC[C@@H]1NC(=O)[C@H](Cc2c[nH]c3c(C)cccc23)NC(=O)[C@H]([C@@H](C)O)NC(=O)[C@H](CC(N)=O)NC(=O)[C@@H](NC(C)=O)C(C)(C)SSC(C)(C)[C@@H](C(=O)N[C@@H](Cc2ccc(OCCN)cc2)C(=O)N[C@@H](Cc2ccc3ccccc3c2)C(=O)NC2(C(=O)N[C@@H](CCC(=O)O)C(=O)N[C@@H](CC(N)=O)C(=O)N[C@@H](Cc3cccnc3)C(=O)N(C)CC(N)=O)CCOCC2)NC1=O [IL-23 receptor antagonist peptide, Ac-[Pen]*-N-T-[W(7-Me)]-[Lys(Ac)]-[Pen]*-Phe[4-(2-aminoethoxy)]-[2-Nal]-[THP]-E-N-[3-Pal]-Sarc-NH2 (*[Pen]-[Pen]* formdisulfidebond)]
Improvement (reduction) in BSA from baseline [1]: significantly greater improvement
ss-IGA score 0/1 and ≥2-grade improvement from baseline, % (scalp psoriasis; 25 mg BID, baseline ss-IGA score ≥2, n=32): (65.6) %
ss-IGA score 0/1 and ≥2-grade improvement from baseline, % (scalp psoriasis; 25 mg QD, baseline ss-IGA score ≥2, n=37): (32.4) %
ss-IGA score 0/1 and ≥2-grade improvement from baseline, % (scalp psoriasis; 50 mg QD, baseline ss-IGA score ≥2, n=40): 70.0%
ss-IGA score 0/1 and ≥2-grade improvement from baseline, % (scalp psoriasis; 100 mg BID, baseline ss-IGA score ≥2, n=36): 75.0%
ss-IGA score 0/1 and ≥2-grade improvement from baseline, % (scalp psoriasis; 100 mg QD, baseline ss-IGA score ≥2, n=40): 67.5%
Response rate ss-IGA score 0/1 with ≥2-grade improvement from baseline (scalp psoriasis; all doses vs placebo): significantly higher than placebo
